From article PMC8868508, “Kassporin-KS1: A Novel Pentadecapeptide from the Skin Secretion of Kassina senegalensis: Studies on the Structure-Activity Relationships of Site-Specific “Glycine-Lysine” Motif Insertions” (Antibiotics, 2022)
Converted amounts (≈) assume the structure as drawn. Where two headings read alike, the source gives them in different places. Where a SMILES comes first, the peptide text is derived from it.

Tests used:
E. faecalis NCTC 12697 = assay type: cell-based, Enterococcus faecalis
Procedure: (§1) The inhibition of representative microorganisms by peptides was evaluated by the modified broth dilution technique. The microorganisms included Candida albicans (C. albicans, NCTC 10231), Enterococcus faecalis (E. faecalis, NCTC 12697), Staphylococcus aureus (S. aureus, NCTC 10788), Klebsiella pneumoniae (K. pneumoniae, ATCC 43816), Methicillin-resistant Staphylococcus aureus (MRSA, ATCC 12493), Pseudomonas aeruginosa (P. aeruginosa, ATCC 27853), and Escherichia coli (E. coli, NCTC 10418).
(§2) Firstly, the selected microorganism was incubated in conical flasks with 100 mL Mueller Hinton broth (MHB) overnight. Then, the bacterial solution was sub-cultured in 20 mL MHB until it reached the logarithmic growth phase. Meanwhile, the peptide solution was prepared. The peptide was dissolved into 128 × 10^2 μM solution with phosphate-buffered saline (PBS) and then double-diluted into 64, 32, 16, 8, 4, 2, and 1 × 10^2 μM. Each sample solution and positive control ([…] Norfloxacin) was added to 96-well plates and divided into five replicates, 1 μL per well. The blank control was 100 µL MHB, and the growth control was 100 µL bacterial solutions. When the optical density (OD) value corresponding to the microbial concentration reached the value (Gram-positive bacteria: 0.23; Gram-negative bacteria: 0.4; fungi: 0.15) in their logarithmic growth phase, the microorganisms were diluted to the required concentration with MHB (Gram-negative and Gram-positive bacteria: 5 × 10^5 CFU/mL; fungi: 1 × 10^6 CFU/mL).
(§3) The diluted bacterial solution was then added to the 96-well plate at 99 µL per well. The plate was incubated at 37 °C and observed the next day. The MIC was the corresponding lowest peptide concentration without microbial growth. The absorbance of the 96-well plate at 550 nm was measured by Synergy HT Microplate Spectrophotometer (Biotech, Minneapolis, MN, USA), and the obtained values were quantitatively analyzed by Prism 7 software. Subsequently, the concentrations corresponding to the clear solution were removed from the 96-well plate in 10 µL and dropped onto the solidified MHA. The Petri dishes with MHA were cultured overnight, observed and the minimum peptide concentration without colonies was MBC.

E. coli NCTC 10418 = assay type: cell-based, Escherichia coli
Procedure: as §1, §2, §3

[1] = test system: S. aureus NCTC 10788 biofilm; assay type: cell-based, Staphylococcus aureus; settings: NCTC 10788, 24 h
Procedure: (§4) As previously described, the MBIC and MBEC of the peptides against bacteria were determined. Staphylococcus aureus (S. aureus, NCTC 10788) and Escherichia coli (E. coli, NCTC 10418) was selected as representative strains. For the MBIC assay, the cultures were sub-cultured to their logarithmic growth phases. The diluted bacterial suspension was incubated with the peptide solution overnight in a 96-well plate. The resulting biofilm was washed with PBS solution, fixed with methanol, and dried. The biofilm was then stained with 0.1% (w/v) crystal violet, washed again with PBS, and dissolved in 30% acetic acid. The absorbance of the solution in each well at 595 nm was counted by the Synergy HT Microplate Spectrophotometer (Biotech, Minneapolis, MN, USA). Compared with the negative control, the lowest concentration that inhibits biofilm formation was MBIC. For the determination of MBEC, the diluted bacterial solution was incubated in the 96-well plate for 24 h, with 100 µL per well. Then, the biofilm was washed and re-incubated with 100 µL peptide-medium solution. After 24 h, the biofilm was again washed, stained, and dissolved as in the MBIC assay. Each well was detected at 595 nm by the same plate reader in MBIC. Compared with the negative control, the lowest concentration to eliminate biofilm was MBEC.

K. pneumoniae ATCC 43816 = assay type: cell-based, Klebsiella pneumoniae
Procedure: as §1, §2, §3

[2] = test system: E. coli NCTC 10418 biofilm; assay type: cell-based, Escherichia coli; settings: NCTC 10418, 24 h
Procedure: as §4

S. aureus NCTC 10788 [3] = assay type: cell-based, Staphylococcus aureus
Procedure: as §1, §2, §3

MRSA NCTC 12493 = assay type: cell-based, Methicillin-resistant Staphylococcus aureus
P. aeruginosa ATCC 27853 = assay type: cell-based, Pseudomonas aeruginosa
Procedure: as §1, §2, §3

C. albicans NCTC 10231 = assay type: cell-based, Candida albicans
Procedure: as §1, §2, §3

S. aureus NCTC 10788 [4] = assay type: cell-based, Staphylococcus aureus; remark: listed apart in the source
Procedure: As mentioned in the previous study, the salt and pH sensitivities of AMPs exposed to physiological concentrations of salts or non-neutral environments were tested. MHB containing different ion concentrations (150 mM NaCl, 1 mM MgCl2, and 4 μM FeCl3) and MHB with pH 6.0 and pH 8.0 were prepared. The selected microorganism Staphylococcus aureus (S. aureus, NCTC 10788) was incubated overnight in the prepared medium, sub-cultured to the logarithmic phase, and then diluted to 5 × 10^5 CFU/mL. The subsequent steps were carried out as the MIC/MBC assay.

SMILES	MIC (E. faecalis NCTC 12697) [µM]	MIC (E. coli NCTC 10418) [µM]	MIC (K. pneumoniae ATCC 43816) [µM]	MIC (S. aureus NCTC 10788 [3]) [µM]	MIC (MRSA NCTC 12493) [µM]	MIC (P. aeruginosa ATCC 27853) [µM]	MIC (C. albicans NCTC 10231) [µM]	MIC (S. aureus NCTC 10788 [4]) [µM]	MBC (E. faecalis NCTC 12697) [µM]	MBC (E. coli NCTC 10418) [µM]	MBEC [1]	MBC (K. pneumoniae ATCC 43816) [µM]	MBEC [2]	MBIC [2]	MBC (S. aureus NCTC 10788 [3]) [µM]	MBC (MRSA NCTC 12493) [µM]	MBC (P. aeruginosa ATCC 27853) [µM]	MBC (C. albicans NCTC 10231) [µM]	MBIC [1]	MBC (S. aureus NCTC 10788 [4]) [µM]
CC[C@H](C)[C@H](NC(=O)[C@H](C)NC(=O)CNC(=O)CNC(=O)[C@@H](NC(=O)[C@H](CC(C)C)NC(=O)[C@H](C)NC(=O)[C@H](CC(C)C)NC(=O)[C@H](C)NC(=O)[C@H](CC(C)C)NC(=O)[C@@H](N)Cc1ccccc1)[C@@H](C)CC)C(=O)N[C@@H](C)C(=O)N[C@@H](CCCCN)C(=O)N[C@@H](CC(C)C)C(=O)N[C@@H](CCCCN)C(N)=O [QUB-1498] (H-FLALALIGGAIAKLK-NH2)	32	32	> 128	16	128 (≈ 192 µg/mL)	> 128	32		64	> 128	128 µM	> 128	>128/>128 µM	>128/>128 µM	16	> 128	> 128	> 128		
CC[C@H](C)[C@H](NC(=O)[C@H](C)NC(=O)[C@H](CCCCN)NC(=O)CNC(=O)[C@@H](NC(=O)[C@H](CC(C)C)NC(=O)[C@H](C)NC(=O)[C@H](CC(C)C)NC(=O)[C@H](C)NC(=O)[C@H](CC(C)C)NC(=O)[C@@H](N)Cc1ccccc1)[C@@H](C)CC)C(=O)N[C@@H](C)C(=O)N[C@@H](CCCCN)C(=O)N[C@@H](CC(C)C)C(=O)N[C@@H](CCCCN)C(N)=O [QUB-1570] (H-FLALALIGKAIAKLK-NH2)	8	16	32	2	4 (≈ 6.28 µg/mL)	> 128	8		8	32		32	64 µM	32 µM	8	8 (≈ 12.6 µg/mL)	> 128	8	4 µM	
CC[C@H](C)[C@H](NC(=O)[C@H](C)NC(=O)[C@H](CCC(=O)O)NC(=O)[C@H](CCCCN)NC(=O)CNC(=O)[C@H](CC(C)C)NC(=O)[C@H](C)NC(=O)[C@H](CC(C)C)NC(=O)[C@H](C)NC(=O)[C@H](CC(C)C)NC(=O)[C@@H](N)Cc1ccccc1)C(=O)N[C@@H](C)C(=O)N[C@@H](CCCCN)C(=O)N[C@@H](CC(C)C)C(=O)N[C@@H](CCCCN)C(N)=O [QUB-1585] (H-FLALALGKEAIAKLK-NH2)	128	64	> 128	32	64 (≈ 101 µg/mL)	> 128	64		> 128	128	128 µM	> 128	128/128 µM	128/128 µM	64	128 (≈ 203 µg/mL)	> 128	128	64 µM	> 128

The next lines start with results.

MIC (E. faecalis NCTC 12697) [µM]	MIC (E. coli NCTC 10418) [µM]	MIC (K. pneumoniae ATCC 43816) [µM]	MIC (S. aureus NCTC 10788 [3]) [µM]	MIC (MRSA NCTC 12493) [µM]	MIC (P. aeruginosa ATCC 27853) [µM]	MIC (C. albicans NCTC 10231) [µM]	MIC (S. aureus NCTC 10788 [4]) [µM]	SMILES	MBC (E. faecalis NCTC 12697) [µM]	MBC (E. coli NCTC 10418) [µM]	MBEC [1]	MBC (K. pneumoniae ATCC 43816) [µM]	MBEC [2]	MBIC [2]	MBC (S. aureus NCTC 10788 [3]) [µM]	MBC (MRSA NCTC 12493) [µM]	MBC (P. aeruginosa ATCC 27853) [µM]	MBC (C. albicans NCTC 10231) [µM]	MBIC [1]	MBC (S. aureus NCTC 10788 [4]) [µM]
> 128	> 128	> 128	> 128	> 128	> 128	> 128	> 128	CC[C@H](C)[C@H](NC(=O)[C@H](C)NC(=O)[C@H](CCC(=O)O)NC(=O)[C@H](CCC(N)=O)NC(=O)[C@H](CCCCN)NC(=O)CNC(=O)[C@H](C)NC(=O)[C@H](CC(C)C)NC(=O)[C@H](C)NC(=O)[C@H](CC(C)C)NC(=O)[C@@H](N)Cc1ccccc1)C(=O)N[C@@H](C)C(=O)N[C@@H](CCCCN)C(=O)N[C@@H](CC(C)C)C(=O)N[C@@H](CCCCN)C(N)=O [QUB-1599] (H-FLALAGKQEAIAKLK-NH2)	> 128	> 128	>128/>128 µM	> 128	>128/>128 µM	>128/>128 µM	> 128	> 128	> 128	> 128	>128/>128 µM	> 128
16	8	128	8	8 (≈ 12.9 µg/mL)	> 128	16		CC[C@H](C)[C@H](NC(=O)[C@H](C)NC(=O)[C@H](CCCCN)NC(=O)[C@@H]1CCCN1C(=O)[C@@H](NC(=O)[C@H](CC(C)C)NC(=O)[C@H](C)NC(=O)[C@H](CC(C)C)NC(=O)[C@H](C)NC(=O)[C@H](CC(C)C)NC(=O)[C@@H](N)Cc1ccccc1)[C@@H](C)CC)C(=O)N[C@@H](C)C(=O)N[C@@H](CCCCN)C(=O)N[C@@H](CC(C)C)C(=O)N[C@@H](CCCCN)C(N)=O [QUB-1609] (H-FLALALIPKAIAKLK-NH2)	64	64	128 µM	> 128	128 µM	64 µM	32	16 (≈ 25.7 µg/mL)	> 128	32	16 µM	
128	128	> 128	32	64 (≈ 105 µg/mL)	> 128	64		CC[C@H](C)[C@H](NC(=O)[C@H](C)NC(=O)[C@H](CCC(=O)O)NC(=O)[C@H](CCC(N)=O)NC(=O)[C@@H](NC(=O)[C@H](CC(C)C)NC(=O)[C@H](CCCCN)NC(=O)CNC(=O)[C@H](C)NC(=O)[C@H](CC(C)C)NC(=O)[C@@H](N)Cc1ccccc1)[C@@H](C)CC)C(=O)N[C@@H](C)C(=O)N[C@@H](CCCCN)C(=O)N[C@@H](CC(C)C)C(=O)N[C@@H](CCCCN)C(N)=O [QUB-1643] (H-FLAGKLIQEAIAKLK-NH2)	> 128	> 128	128/>128 µM	> 128	>128/>128 µM	>128/>128 µM	64	128 (≈ 210 µg/mL)	> 128	128	128/>128 µM	
